Data taken from US20250186391A1, “ORAL COMPLEMENT FACTOR D INHIBITORS” (BioCryst Pharmaceuticals, Inc., priority 2019, published 2025).

Biological target: Factor D (Homo sapiens (Human), UniProt P00746)
Test: Factor D esterolytic assay
Format: biochemical
Conditions: Z-Lys-SBzl substrate, 100 mM HEPES, 500 mM NaCl, pH 7.5, 10% DMSO; tested a minimum of three times; read-out: Measured Ki (IC50) Value for Compounds: IC50
Outline: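 Chromogenic thioesterase read-out: Z-Lys-SBzl (1.29 mM) hydrolysis by human Factor D, thiol detected with DTNB at 405 nm (690 nm background subtracted) for 600 s. Run in 100 mM HEPES, 500 mM NaCl, pH 7.5, 10% DMSO, substrate added immediately or after room-temperature preincubation. IC50 from percent inhibition versus enzyme alone, n≥3.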

Sequence of Factor D (P00746 26-253): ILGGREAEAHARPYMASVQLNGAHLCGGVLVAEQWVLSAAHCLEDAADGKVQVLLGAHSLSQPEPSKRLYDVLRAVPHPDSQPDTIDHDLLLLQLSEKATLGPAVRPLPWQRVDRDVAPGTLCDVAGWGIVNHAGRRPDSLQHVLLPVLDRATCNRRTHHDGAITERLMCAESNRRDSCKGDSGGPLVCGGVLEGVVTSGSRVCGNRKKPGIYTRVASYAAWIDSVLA

| Compound | IC50 [µM] |
| --- | --- |
| CC(C)n1nc(COc2ccccc2CC(=O)O)c2cc(-c3cccc([C@H](N)CO)c3)ccc21 [Compound 267b, (S)-2-(2-((5-(3-(1-amino-2-hydroxyethyl)phenyl)-1-isopropyl-1H-indazol-3-yl)methoxy)phenyl)acetic acid] | < 1 |
| CCCc1oc2ccc(-c3cccc(CN)c3F)cc2c1COc1cc(OC)ccc1CC(=O)O [Compound 297b, 2-(2-((5-(3-(aminomethyl)-2-fluorophenyl)-2-propylbenzofuran-3-yl)methoxy)-4-methoxyphenyl)acetic acid] | < 1 |
| NCc1cccc(-c2cc(NCC3CC3)c3occ(COc4ccccc4CC(=O)O)c3c2)c1 [Compound 85c, 2-(2-((5-(3-(aminomethyl)phenyl)-7-((cyclopropylmethyl)amino)benzofuran-3-yl)methoxy)phenyl)acetic acid] | < 1 |
| Cc1cc2c(o1)c(-c1cccc(CN)c1)cc1c(COc3ccccc3CC(=O)O)c(C)oc12 [Compound 272n, 2-(2-((5-(3-(aminomethyl)phenyl)-2,7-dimethylbenzo[1,2-b:3,4-b′]difuran-3-yl)methoxy)phenyl)acetic acid] | < 1 |
| COc1ccc(CC(=O)O)c(OCc2c(C(C)C)oc3ccc(-c4cccc(CN)c4)cc23)c1 [Compound 169c, 2-(2-((5-(3-(aminomethyl)phenyl)-2-isopropylbenzofuran-3-yl)methoxy)-4-methoxyphenyl)acetic acid] | < 1 |
| NCc1cccc(-c2cc(CN3CCOCC3)c3occ(COc4ccccc4CC(=O)O)c3c2)c1 [Compound 79h, 2-(2-((5-(3-(aminomethyl)phenyl)-7-(morpholinomethyl)benzofuran-3-yl)methoxy)phenyl)acetic acid] | < 1 |
| CNc1cc(-c2cccc(CN)c2)cc2c(COc3ccccc3CC(=O)O)coc12 [Compound 152d, 2-(2-((5-(3-(aminomethyl)phenyl)-7-(methylamino)benzofuran-3-yl)methoxy)phenyl)acetic acid] | < 1 |
| NCc1cccc(-c2ccc3occ(COc4cc(F)ccc4CC(=O)O)c3c2)c1 [Compound 39f, 2-(2-((5-(3-(aminomethyl)phenyl)benzofuran-3-yl)methoxy)-4-fluorophenyl)acetic acid] | < 1 |
| COc1ccc(CC(=O)O)c(OCc2c(C(F)F)oc3ccc(-c4cccc(CN)c4)cc23)c1 [Compound 215d, 2-(2-((5-(3-(aminomethyl)phenyl)-2-(difluoromethyl)benzofuran-3-yl)methoxy)-4-methoxyphenyl)acetic acid] | < 1 |
| CC(C)n1nc(COc2c(C#N)cccc2CC(=O)O)c2cc(-c3cccc(CN)c3)ccc21 [Compound 305c, 2-(2-((5-(3-(aminomethyl)phenyl)-1-isopropyl-1H-indazol-3-yl)methoxy)-3-cyanophenyl)acetic acid] | < 1 |
| CC(O)c1cc(-c2cccc(CN)c2)c2oc(COc3ccccc3CC(=O)O)cc2c1 (centres unmarked) [Compound 31, 2-(2-((7-(3-(aminomethyl)phenyl)-5-(1-hydroxyethyl)benzofuran-2-yl)methoxy)phenyl)acetic acid] | < 1 |
| COc1ccc(CC(=O)O)c(OCc2c(C(=O)O)sc3ccc(-c4cccc(CN)c4)cc23)c1 [Compound 62c, 5-(3-(aminomethyl)phenyl)-3-((2-(carboxymethyl)-5-methoxyphenoxy)methyl)benzo[b]thiophene-2-carboxylic acid] | < 1 |
| NCc1cccc(-c2cc(N)c3oc(COc4ccccc4CC(=O)O)cc3c2)c1 [Compound 235g, 2-(2-((7-amino-5-(3-(aminomethyl)phenyl)benzofuran-2-yl)methoxy)phenyl)acetic acid] | > 10 |
| CC(C)(C)OC(=O)N1CCN(Cc2cc(-c3cccc(CN)c3)cc3c(COc4ccccc4CC(=O)O)coc23)CC1 [Compound 121f, 2-(2-((5-(3-(aminomethyl)phenyl)-7-((4-(tert-butoxycarbonyl)piperazin-1-yl)methyl)benzofuran-3-yl)methoxy)phenyl)acetic acid] | < 1 |
| NCc1cccc(-c2cc(CN3CCC(F)(F)C3)c3occ(COc4ccccc4CC(=O)O)c3c2)c1 [Compound 181f, 2-(2-((5-(3-(aminomethyl)phenyl)-7-((3,3-difluoropyrrolidin-1-yl)methyl)benzofuran-3-yl)methoxy)phenyl)acetic acid] | < 1 |
| NCc1cccc(-c2cc(OCCF)c3occ(COc4ccccc4CC(=O)O)c3c2)c1 [Compound 248f, 2-(2-((5-(3-(aminomethyl)phenyl)-7-(2-fluoroethoxy)benzofuran-3-yl)methoxy)phenyl)acetic acid] | < 1 |
| NCc1cccc(-c2cc(-c3ccccc3N)c3occ(COc4ccccc4CC(=O)O)c3c2)c1 [Compound 222c, 2-(2-((5-(3-(aminomethyl)phenyl)-7-(2-aminophenyl)benzofuran-3-yl)methoxy)phenyl)acetic acid] | < 1 |
| COc1ccc(CC(=O)O)c(OCc2c(CO)oc3ccc(-c4cccc(CN)c4)cc23)c1 [Compound 214c, 2-(2-((5-(3-(aminomethyl)phenyl)-2-(hydroxymethyl)benzofuran-3-yl)methoxy)-4-methoxyphenyl)acetic acid] | < 1 |
| COc1ccc(CC(=O)O)c(OCc2coc3c(NCC4CCCC4)cc(-c4cccc(CN)c4)cc23)c1 [Compound 277c, 2-(2-((5-(3-(aminomethyl)phenyl)-7-((cyclopentylmethyl)amino)benzofuran-3-yl)methoxy)-4-methoxyphenyl)acetic acid] | < 1 |
| COc1ccc(CC(=O)O)c(OCc2c(C)oc3ccc(-c4cccc(CN)n4)cc23)c1 [Compound 245d, 2-(2-((5-(6-(aminomethyl)pyridin-2-yl)-2-methylbenzofuran-3-yl)methoxy)-4-methoxyphenyl)acetic acid] | < 1 |
| CCOC(=O)Cc1ccccc1OCc1cc2c(-c3cccc(CN)c3)cccc2o1 [Compound 25c, ethyl 2-(2-((4-(3-(aminomethyl)phenyl)benzofuran-2-yl)methoxy)phenyl)acetate] | > 10 |
| NCc1cccc(-c2cc(OCCN3CCOCC3)c3occ(COc4ccccc4CC(=O)O)c3c2)c1 [Compound 250f, 2-(2-((5-(3-(aminomethyl)phenyl)-7-(2-morpholinoethoxy)benzofuran-3-yl)methoxy)phenyl)acetic acid] | < 1 |
| CC(C)n1nc(COc2ccccc2CC(=O)O)c2cc(-c3ccnc(CN)c3F)ccc21 [Compound 271c, 2-(2-((5-(2-(aminomethyl)-3-fluoropyridin-4-yl)-1-isopropyl-1H-indazol-3-yl)methoxy)phenyl)acetic acid] | < 1 |
| COc1ccc(OCc2coc3ccc(-c4cccc(CN)c4)cc23)c(CC(=O)O)c1 [Compound 106c, 2-(2-((5-(3-(aminomethyl)phenyl)benzofuran-3-yl)methoxy)-5-methoxyphenyl)acetic acid] | < 1 |
| COC(=O)c1cc(-c2cccc(CN)c2)c2oc(COc3ccccc3CC(=O)O)cc2c1 [Compound 23c, 2-(2-((7-(3-(aminomethyl)phenyl)-5-(methoxycarbonyl)benzofuran-2-yl)methoxy)phenyl)acetic acid] | < 1 |
| CCc1oc2ccc(-c3cccc(CN)c3F)cc2c1COc1cc(OC)ccc1CC(=O)O [Compound 227b, 2-(2-((5-(3-(aminomethyl)-2-fluorophenyl)-2-ethylbenzofuran-3-yl)methoxy)-4-methoxyphenyl)acetic acid] | < 1 |
